A short description of the series: recombinant barcode read abundance after kanamycin selection (control-corrected) (log10(CPM+1)); higher = more efficient recombination; sequences stand for … in AGTGCAGAGAAAATCGGCCAGTTTTCTCTGCCTGCAGTCCGCATGCCGT…AGATTTATGCAGCGGACTGCCTTTCTCCCAAAGTGATAAACCGGACAGTATCATGGACCGGTTTTCCCGGTAATCCGTATTTGCAAGGTTGGTTTCACT; site = the 11-nt target. The method, boiled down:
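The screen was pooled in E. coli and paired targets with IS621 bridge RNA target-binding loops. Recombination efficiency is taken from barcode counts per million at recombinant junctions, averaged and adjusted against the control. Values, in the form log10(CPM+1), come from duplicate plating on chloramphenicol/ampicillin LB agar or on chloramphenicol/ampicillin/kanamycin with 0.1 mM IPTG.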
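Note: IS621 recombinase and bridge RNA in Escherichia coli cells.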

With “GAGTTTCCTTGGGTTCTAACCTGTTGCGT (site GAGTTGCCTAC)”, the “recombinant barcode read abundance (log10)” value amounted to 0.0725.

For “GAGTTTCCTTGGGTTCTAACCTGTTGCGT (site GAGTTTCCTAC)”, the “recombinant barcode read abundance (log10)” value turned out to be 0.791.

In the case of “GATACAGCTTGGGTTCTAACCTGTTGCCT (site GAAACAGCTAG)”, the “recombinant barcode read abundance (log10)” value is 0.0665.

Regarding “GATACAGCTTGGGTTCTAACCTGTTGCCT (site GACACAGCTAG)”, the “recombinant barcode read abundance (log10)” value stood at 0.444.

Take “GATACAGCTTGGGTTCTAACCTGTTGCCT (site GAGACAGCTAG)”: the “recombinant barcode read abundance (log10)” value was 0.155.

Regarding “GATACAGCTTGGGTTCTAACCTGTTGCCT (site GATACAGCTAG)”, the “recombinant barcode read abundance (log10)” value is 1.16.

Consider “GATACGACTTGGGTTCTAACCTGTTGCCT (site GATACGACTAG)”, for which the “recombinant barcode read abundance (log10)” value was found to be 1.14.

Take “GATACGACTTGGGTTCTAACCTGTTGCCT (site GATACGCCTAG)”: the “recombinant barcode read abundance (log10)” value amounted to 0.748.

For “GATACGACTTGGGTTCTAACCTGTTGCCT (site GATACGGCTAG)”, the “recombinant barcode read abundance (log10)” value was determined as 0.0662.

Turning to “GATACGACTTGGGTTCTAACCTGTTGCCT (site GATACGTCTAG)”, the “recombinant barcode read abundance (log10)” value was 0.00976.

With “GATACTACTTGGGTTCTAACCTGTTGCAG (site GATACTACTCT)”, the “recombinant barcode read abundance (log10)” value was found to be 0.17.

With “GATACTACTTGGGTTCTAACCTGTTGCAG (site GATGCTACTCT)”, the “recombinant barcode read abundance (log10)” value was determined as 0.11.

For the sequence “GATAGACCTTGGGTTCTAACCTGTTGCCT (site CATAGACCTAG)”, the “recombinant barcode read abundance (log10)” value is 0.126.

As to “GATAGACCTTGGGTTCTAACCTGTTGCCT (site GATAGACCTAG)”, the “recombinant barcode read abundance (log10)” value was 1.57.

Turning to “GATAGCTCTTGGGTTCTAACCTGTTGCCT (site AATAGCTCTAG)”, the “recombinant barcode read abundance (log10)” value turned out to be 0.332.

On to “GATAGCTCTTGGGTTCTAACCTGTTGCCT (site CATAGCTCTAG)”, for which the “recombinant barcode read abundance (log10)” value was found to be 0.0838.

As for “GATAGCTCTTGGGTTCTAACCTGTTGCCT (site GATAGCTCTAG)”, the “recombinant barcode read abundance (log10)” value was 0.998.

For “GATAGCTCTTGGGTTCTAACCTGTTGCCT (site TATAGCTCTAG)”, the “recombinant barcode read abundance (log10)” value turned out to be 0.509.

As to “GATAGGGCTTGGGTTCTAACCTGTTGCCT (site GATAGGGCTAG)”, the “recombinant barcode read abundance (log10)” value is 1.09.

In the case of “GATAGGGCTTGGGTTCTAACCTGTTGCCT (site TTATACACTGA)”, the “recombinant barcode read abundance (log10)” value stood at 0.135.

Consider “GATCAGCCTTGGGTTCTAACCTGTTGCCT (site GATCAGCCTAG)”, for which the “recombinant barcode read abundance (log10)” value is 0.445.

As for “GATCAGCCTTGGGTTCTAACCTGTTGCCT (site GATCTGCCTAG)”, the “recombinant barcode read abundance (log10)” value is 0.063.

For the sequence “GATCCTACTTGGGTTCTAACCTGTTGCCA (site GATCCTACTTG)”, the “recombinant barcode read abundance (log10)” value was 0.315.

In the case of “GATCCTACTTGGGTTCTAACCTGTTGCCA (site GATGCTACTTG)”, the “recombinant barcode read abundance (log10)” value amounted to 0.0449.

Regarding “GATCGAACTTGGGTTCTAACCTGTTGCCT (site AATCGAACTAG)”, the “recombinant barcode read abundance (log10)” value was 0.15.

In the case of “GATCGAACTTGGGTTCTAACCTGTTGCCT (site GATCGAACTAG)”, the “recombinant barcode read abundance (log10)” value is 0.204.

Take “GATCGAGCTTGGGTTCTAACCTGTTGCAG (site GATCGAGCTCT)”: the “recombinant barcode read abundance (log10)” value was 1.42.

In the case of “GATCGAGCTTGGGTTCTAACCTGTTGCAG (site TGGACGACTAA)”, the “recombinant barcode read abundance (log10)” value was 0.178.

Take “GATCGAGCTTGGGTTCTAACCTGTTGCCT (site GATCGAGCTAG)”: the “recombinant barcode read abundance (log10)” value worked out at 1.12.

With “GATCGAGCTTGGGTTCTAACCTGTTGCCT (site GATCGCGCTAG)”, the “recombinant barcode read abundance (log10)” value turned out to be 0.

“GATCGCGCTTGGGTTCTAACCTGTTGCCT (site GATCGAGCTAG)”: the “recombinant barcode read abundance (log10)” value turned out to be 0.133.

For “GATCGCGCTTGGGTTCTAACCTGTTGCCT (site GATCGCGCTAG)”, the “recombinant barcode read abundance (log10)” value worked out at 0.231.

Consider “GATCTAGCTTGGGTTCTAACCTGTTGCAT (site CATATAGCTAT)”, for which the “recombinant barcode read abundance (log10)” value was determined as 0.0793.

As to “GATCTAGCTTGGGTTCTAACCTGTTGCAT (site GATCTAGCTAT)”, the “recombinant barcode read abundance (log10)” value turned out to be 0.574.

Consider “GATGAGTCTTGGGTTCTAACCTGTTGCTT (site GATGAGTCTAA)”, for which the “recombinant barcode read abundance (log10)” value worked out at 1.8.

In the case of “GATGAGTCTTGGGTTCTAACCTGTTGCTT (site GATGAGTCTAG)”, the “recombinant barcode read abundance (log10)” value amounted to 1.34.

On to “GATGATACTTGGGTTCTAACCTGTTGCGT (site GATGATACTAC)”, for which the “recombinant barcode read abundance (log10)” value worked out at 2.51.

As for “GATGATACTTGGGTTCTAACCTGTTGCGT (site GTTTATACTAC)”, the “recombinant barcode read abundance (log10)” value is 0.0738.

For “GATGCCACTTGGGTTCTAACCTGTTGCCT (site GATCCCACTAG)”, the “recombinant barcode read abundance (log10)” value is 0.182.

Consider “GATGCCACTTGGGTTCTAACCTGTTGCCT (site GATGCCACTAG)”, for which the “recombinant barcode read abundance (log10)” value is 1.53.

With “GATGGTACTTGGGTTCTAACCTGTTGCAT (site ACGCACTCTCG)”, the “recombinant barcode read abundance (log10)” value stood at 0.0471.

For the sequence “GATGGTACTTGGGTTCTAACCTGTTGCAT (site GATGGTACTAT)”, the “recombinant barcode read abundance (log10)” value turned out to be 1.46.

As for “GATGTATCTTGGGTTCTAACCTGTTGCCT (site GAGGTAGCTAG)”, the “recombinant barcode read abundance (log10)” value worked out at 0.0384.

Turning to “GATGTATCTTGGGTTCTAACCTGTTGCCT (site GATGTATCTAG)”, the “recombinant barcode read abundance (log10)” value was 1.09.

With “GATTATTCTTGGGTTCTAACCTGTTGCCT (site GAATATTCTAG)”, the “recombinant barcode read abundance (log10)” value was determined as 0.0621.

On to “GATTATTCTTGGGTTCTAACCTGTTGCCT (site GACTATTCTAG)”, for which the “recombinant barcode read abundance (log10)” value came to 0.0521.

“GATTATTCTTGGGTTCTAACCTGTTGCCT (site GAGTATTCTAG)”: the “recombinant barcode read abundance (log10)” value amounted to 0.138.

Regarding “GATTATTCTTGGGTTCTAACCTGTTGCCT (site GATTATTCTAG)”, the “recombinant barcode read abundance (log10)” value was found to be 0.

For the sequence “GATTCGACTTGGGTTCTAACCTGTTGCGT (site CTGGACCCTCG)”, the “recombinant barcode read abundance (log10)” value came to 0.0133.

Take “GATTCGACTTGGGTTCTAACCTGTTGCGT (site GATTCGACTAC)”: the “recombinant barcode read abundance (log10)” value amounted to 1.02.

As to “GATTCTCCTTGGGTTCTAACCTGTTGCAT (site GATTCTCCTAA)”, the “recombinant barcode read abundance (log10)” value is 0.246.

With “GATTCTCCTTGGGTTCTAACCTGTTGCAT (site GATTCTCCTAC)”, the “recombinant barcode read abundance (log10)” value was determined as 0.143.

“GATTCTCCTTGGGTTCTAACCTGTTGCAT (site GATTCTCCTAG)”: the “recombinant barcode read abundance (log10)” value stood at 0.0815.

In the case of “GATTCTCCTTGGGTTCTAACCTGTTGCAT (site GATTCTCCTAT)”, the “recombinant barcode read abundance (log10)” value came to 0.197.

“GATTCTTCTTGGGTTCTAACCTGTTGCCT (site GATTCTTCTAG)”: the “recombinant barcode read abundance (log10)” value turned out to be 0.1.

Turning to “GATTCTTCTTGGGTTCTAACCTGTTGCCT (site GCTTCTTCTAG)”, the “recombinant barcode read abundance (log10)” value came to 0.024.

For “GATTCTTCTTGGGTTCTAACCTGTTGCCT (site GGTTCTTCTAG)”, the “recombinant barcode read abundance (log10)” value turned out to be 0.232.

In the case of “GATTCTTCTTGGGTTCTAACCTGTTGCCT (site GTTTCTTCTAG)”, the “recombinant barcode read abundance (log10)” value was 0.

As for “GATTGGACTTGGGTTCTAACCTGTTGCTT (site AATTGGACTAA)”, the “recombinant barcode read abundance (log10)” value stood at 0.38.

As for “GATTGGACTTGGGTTCTAACCTGTTGCTT (site CATTGGACTAA)”, the “recombinant barcode read abundance (log10)” value turned out to be 0.421.

With “GATTGGACTTGGGTTCTAACCTGTTGCTT (site GATTGGACTAA)”, the “recombinant barcode read abundance (log10)” value is 0.661.

For the sequence “GATTGGACTTGGGTTCTAACCTGTTGCTT (site TATTGGACTAA)”, the “recombinant barcode read abundance (log10)” value was determined as 0.128.

For the sequence “GCAAAGCCTTGGGTTCTAACCTGTTGCCT (site GCAAAGCCTAG)”, the “recombinant barcode read abundance (log10)” value is 1.18.

Consider “GCAAAGCCTTGGGTTCTAACCTGTTGCCT (site GCACAGACTAG)”, for which the “recombinant barcode read abundance (log10)” value stood at 0.195.

Take “GCAAGGACTTGGGTTCTAACCTGTTGCAG (site GCAAGGACTCT)”: the “recombinant barcode read abundance (log10)” value worked out at 2.6.

With “GCAAGGACTTGGGTTCTAACCTGTTGCAG (site GCACGGACTCT)”, the “recombinant barcode read abundance (log10)” value amounted to 0.165.

Turning to “GCAAGGACTTGGGTTCTAACCTGTTGCAG (site GCAGGGACTCT)”, the “recombinant barcode read abundance (log10)” value is 0.76.

For “GCAAGGACTTGGGTTCTAACCTGTTGCAG (site GCATGGACTCT)”, the “recombinant barcode read abundance (log10)” value came to 0.587.

On to “GCAAGGCCTTGGGTTCTAACCTGTTGCCT (site ACAAGGCCTAG)”, for which the “recombinant barcode read abundance (log10)” value came to 0.0435.

As for “GCAAGGCCTTGGGTTCTAACCTGTTGCCT (site CCAAGGCCTAG)”, the “recombinant barcode read abundance (log10)” value is 0.721.

“GCAAGGCCTTGGGTTCTAACCTGTTGCCT (site GCAAGGCCTAG)”: the “recombinant barcode read abundance (log10)” value came out at 0.418.

“GCAAGGCCTTGGGTTCTAACCTGTTGCCT (site TCAAGGCCTAG)”: the “recombinant barcode read abundance (log10)” value was 0.0143.

For the sequence “GCAATTACTTGGGTTCTAACCTGTTGCTT (site GCAATTACTAA)”, the “recombinant barcode read abundance (log10)” value was 0.0238.

“GCAATTACTTGGGTTCTAACCTGTTGCTT (site TGGGGCCCTCG)”: the “recombinant barcode read abundance (log10)” value was 0.078.

With “GCACCACCTTGGGTTCTAACCTGTTGCCT (site GCACAACCTAG)”, the “recombinant barcode read abundance (log10)” value was 0.0145.

For the sequence “GCACCACCTTGGGTTCTAACCTGTTGCCT (site GCACCACCTAG)”, the “recombinant barcode read abundance (log10)” value amounted to 1.06.

As to “GCACCACCTTGGGTTCTAACCTGTTGCCT (site GCACGACCTAG)”, the “recombinant barcode read abundance (log10)” value was found to be 0.178.

The record behind these values is the supplement of paper PMC11208160.
